≈ marks a conversion by molar mass, not a printed value.
Key:
[1] = test system: C. albicans ATCC 64124 (strain B); assay: microbe, parasite or virus in culture; assay type: cell-based, Candida albicans; settings: strain B; compounds 1-4n and AmB; 48 h, RPMI 1640
Protocol: (§1) Fungal MIC determination experiments were performed using untreated 96-well plates (Corning). Cells were counted either by using a hemocytometer (Hausser Scientific, Horsham, Pa., USA) or by measuring optical density at attenuance of 600 nm (OD600) by using a Genesys 20 spectrophotometer (Thermo Scientific, Waltham, Mass., USA). Spectrophotometric and colorimetric measurements in 96-well plates were performed using a SpectraMax M5 spectrometer (Molecular Devices, Sunnyvale, Calif., USA).
(§2) Yeast strains Candida albicans ATCC 10231 (strain A), C. albicans ATCC 64124 (strain B), and C. albicans ATCC MYA-2876(S) (strain C) were kindly provided by Dr. Jon Y. Takemoto (Utah State University, Logan, UT, USA). C. albicans ATCC MYA-90819(R) (strain D), C. albicans ATCC MYA-2310(S) (strain E), C. albicans ATCC 1237(R) (strain F), C. albicans ATCC MYA-1003(R) (strain G), Candida glabrata ATCC 2001 (strain H), Candida krusei ATCC 6258 (strain I), and Candida parapsilosis ATCC 22019 (strain J) were obtained from the American Type Culture Collection (ATCC, Manassas, Va., USA). The (S) and (R) indicate that ATCC reports these strains to be susceptible (S) and resistant (R) to ITC and FLC. The filamentous fungal strains Aspergillus flavus ATCC MYA-3631 (strain K), and Aspergillus terreus ATCC MYA-3633 (strain M) were also obtained from the American Type Culture Collection (ATCC, Manassas, Va., USA). Aspergillus nidulans ATCC 38163 (strain L) was kindly provided by Dr. Jon S. Thorson (University of Kentucky, Lexington, Ky., USA), respectively. Yeast strains were cultured at 35° C. Filamentous fungal strains were cultured at 25° C. and the spores were harvested. All fungal strains were cultured in RPMI 1640 medium (catalog # R6504, Sigma-Aldrich Chemical Co., St. Louis, Mo.) buffered to pH 7.0 with 0.165 M morpholinepropanesulfonic acid (MOPS) buffer (Sigma-Aldrich Chemical Co.).
(§3) The MIC values against fungal strains were determined based on a previously published protocol. MIC values for ebsulfur (2a) analogues against fungal cells were evaluated in 96-well plates as described in the CLSI document M27-A3 with minor modifications. […] Therefore, potato dextrose broth (PDB) was used to grow the yeast inocula of all strains tested, which were later diluted in RPMI 1640 medium to perform determination of MIC values. […] The tested compounds (10 mg/mL) were diluted to the working stocks (500 μg/mL) by addition of DMSO. Two-fold serial dilution of the working stocks was prepared by addition of RPMI 1640 medium (100 μL) and cell suspension (100 μL) to 96-well microtiter plate to achieve final drug and inoculum concentrations ranging from 12.5-0.02 μg/mL and 5×10^3 CFU/mL, respectively. Plates were incubated for 48 h at 35° C. […]

[2] = test system: C. albicans ATCC 90819(R) (strain D); assay: microbe, parasite or virus in culture; assay type: cell-based, Candida albicans; settings: strain D; compounds 1-4n and AmB; 48 h, RPMI 1640
Protocol: as §1, §2, §3

[3] = test system: C. albicans ATCC MYA-1003(R) (strain G); assay: microbe, parasite or virus in culture; assay type: cell-based, Candida albicans; settings: strain G; compounds 1-4n and AmB; 48 h, RPMI 1640
Protocol: as §1, §2, §3

[4] = test system: C. albicans ATCC MYA-1237(R) (strain F); assay: microbe, parasite or virus in culture; assay type: cell-based, Candida albicans; settings: strain F; compounds 1-4n and AmB; 48 h, RPMI 1640
Protocol: as §1, §2, §3

[5] = test system: C. albicans ATCC MYA-2310(S) (strain E); assay: Antifungal MIC determination (CLSI M27-A3, 96-well); assay type: cell-based, Candida albicans; settings: strain E; compounds 1-4n and AmB; 48 h, RPMI 1640
Protocol: as §1, §2, §3

[6] = test system: C. albicans ATCC MYA-2876(S) (strain C); assay: as above; assay type: cell-based, Candida albicans; settings: strain C; compounds 1-4n and AmB; 48 h, RPMI 1640
Protocol: as §1, §2, §3

[7] = test system: Candida albicans ATCC 10231 (strain A); assay: as above; assay type: cell-based; settings: strain A; compounds 1-4n and AmB; 48 h, RPMI 1640
Protocol: as §1, §2, §3

[8] = test system: Candida glabrata ATCC 2001 (strain H); assay: as above; assay type: cell-based; settings: strain H; for MIC-0: compounds 1-4n and AmB, 48 h, RPMI 1640
Protocol: as §1, §2, §3

[9] = test system: Candida krusei ATCC 6258 (strain I); assay: as above; assay type: cell-based; settings: strain I; for MIC-0: compounds 1-4n and AmB, 48 h, RPMI 1640
Protocol: as §1, §2, §3

[10] = test system: Candida parapsilosis ATCC 22019 (strain J); assay: as above; assay type: cell-based; settings: strain J; for MIC-0: compounds 1-4n and AmB, 48 h, RPMI 1640
Protocol: as §1, §2, §3

[11] = test system: Aspergillus flavus ATCC MYA-3631 (strain K); assay: Antifungal MIC determination, filamentous fungi spores; assay type: cell-based; settings: all compounds
Protocol: as §1, §2
(§4) The MIC values against fungal strains were determined based on a previously published protocol. MIC values for ebsulfur (2a) analogues against fungal cells were evaluated in 96-well plates as described in the CLSI document M27-A3 with minor modifications. […] Therefore, potato dextrose broth (PDB) was used to grow the yeast inocula of all strains tested, which were later diluted in RPMI 1640 medium to perform determination of MIC values. […] The tested compounds (10 mg/mL) were diluted to the working stocks (500 μg/mL) by addition of DMSO. Two-fold serial dilution of the working stocks was prepared by addition of RPMI 1640 medium (100 μL) and cell suspension (100 μL) to 96-well microtiter plate to achieve final drug and inoculum concentrations ranging from 12.5-0.02 μg/mL and 5×10^3 CFU/mL, respectively. Plates were incubated for 48 h at 35° C.
(§5) MIC assays for the spore-forming filamentous fungi, such as strain A. flavus ATCC MYA-3631 (strain K), were performed in a similar fashion. The filamentous fungal strains were first cultured at 25° C. on potato dextrose agar (PDA) plates for 3-5 days or until confluent. Spores were collected by washing the surface of the agar plates with dd H2O (5 mL) and then isolated the spores by gravity filtration (the spores are H2O soluble). […] Researchers working with spores should wear a facemask to prevent spore inhalation.

[12] = test system: Aspergillus nidulans ATCC 38163 (strain L); assay: as above; assay type: cell-based; settings: strain L; spores
Protocol: as §1, §2, §4, §5

[13] = test system: Aspergillus terreus ATCC MYA-3633 (strain M); assay: as above; assay type: cell-based; settings: strain M, all compounds, spores
Protocol: as §1, §2, §4, §5

SMILES	MIC-0 [1] [µg/mL]	MIC-0 [2] [µg/mL]	MIC-0 [3] [µg/mL]	MIC-0 [4] [µg/mL]	MIC-0 [5] [µg/mL]	MIC-0 [6] [µg/mL]	MIC-0 [7] [µg/mL]	MIC-0 [8] [µg/mL]	MIC-0 [9] [µg/mL]	MIC-0 [10] [µg/mL]	MIC-0 [11] [µg/mL]	MIC-0 [12] [µg/mL]	MIC-0 [13] [µg/mL]	MIC ([8]; Nakaseomyces glabratus, ATCC2001, azoles, read-out: MIC-2) [µg/mL]	MIC ([9]; Pichia kudriavzevii, ATCC6258, azoles, read-out: MIC-2) [µg/mL]	MIC ([10]; Lodderomyces parapsilosis, ATCC22019, azoles, read-out: MIC-2) [µg/mL]	MIC ([11]; Aspergillus flavus, read-out: MIC-0) [µg/mL]	MIC ([13]; Aspergillus terreus, read-out: MIC-0) [µg/mL]
O=c1c2ccccc2sn1-c1ccc(F)cc1 [Compound 2b]	6.25 (≈ 25.5 µM)	3.13 (≈ 12.8 µM)	1.56 (≈ 6.36 µM)	6.25 (≈ 25.5 µM)	3.13 (≈ 12.8 µM)	3.13 (≈ 12.8 µM)	3.13 (≈ 12.8 µM)	6.25 (≈ 25.5 µM)	3.13 (≈ 12.8 µM)	12.5 (≈ 51 µM)	6.25 (≈ 25.5 µM)	12.5 (≈ 51 µM)	12.5 (≈ 51 µM)	–	–	–	–	–
O=c1c2ccccc2sn1-c1ccc(Cl)cc1 [Compound 2c]	>12.5	6.25 (≈ 23.9 µM)	12.5 (≈ 47.8 µM)	6.25 (≈ 23.9 µM)	6.25 (≈ 23.9 µM)	12.5 (≈ 47.8 µM)	3.13 (≈ 12 µM)	6.25 (≈ 23.9 µM)	3.13 (≈ 12 µM)	12.5 (≈ 47.8 µM)	6.25 (≈ 23.9 µM)	6.25 (≈ 23.9 µM)	6.25 (≈ 23.9 µM)	–	–	–	–	–
O=c1c2ccccc2sn1-c1ccc(Br)cc1 [Compound 2d]	3.13 (≈ 10.2 µM)	3.13 (≈ 10.2 µM)	3.13 (≈ 10.2 µM)	1.56 (≈ 5.09 µM)	0.78 (≈ 2.55 µM)	1.56 (≈ 5.09 µM)	3.13 (≈ 10.2 µM)	6.25 (≈ 20.4 µM)	3.13 (≈ 10.2 µM)	6.25 (≈ 20.4 µM)	12.5 (≈ 40.8 µM)	12.5 (≈ 40.8 µM)	12.5 (≈ 40.8 µM)	–	–	–	–	–
CC(C)c1cccc(-n2sc3ccccc3c2=O)c1 [Compound 2h]	3.13 (≈ 11.6 µM)	3.13 (≈ 11.6 µM)	3.13 (≈ 11.6 µM)	3.13 (≈ 11.6 µM)	3.13 (≈ 11.6 µM)	3.13 (≈ 11.6 µM)	3.13 (≈ 11.6 µM)	3.13 (≈ 11.6 µM)	3.13 (≈ 11.6 µM)	3.13 (≈ 11.6 µM)	6.25 (≈ 23.2 µM)	12.5 (≈ 46.4 µM)	12.5 (≈ 46.4 µM)	–	–	–	–	–
O=c1c2ccccc2sn1-c1cc(Br)cc(Br)c1 [Compound 2i]	6.25 (≈ 16.2 µM)	6.25 (≈ 16.2 µM)	6.25 (≈ 16.2 µM)	3.13 (≈ 8.13 µM)	6.25 (≈ 16.2 µM)	6.25 (≈ 16.2 µM)	3.13 (≈ 8.13 µM)	6.25 (≈ 16.2 µM)	6.25 (≈ 16.2 µM)	6.25 (≈ 16.2 µM)	12.5 (≈ 32.5 µM)	3.13 (≈ 8.13 µM)	12.5 (≈ 32.5 µM)	–	–	–	–	–
Cc1cc(C)cc(-n2sc3ccccc3c2=O)c1 [Compound 2j]	6.25 (≈ 24.5 µM)	12.5 (≈ 49 µM)	3.13 (≈ 12.3 µM)	3.13 (≈ 12.3 µM)	0.78 (≈ 3.05 µM)	1.56 (≈ 6.11 µM)	3.13 (≈ 12.3 µM)	12.5 (≈ 49 µM)	12.5 (≈ 49 µM)	12.5 (≈ 49 µM)	12.5 (≈ 49 µM)	12.5 (≈ 49 µM)	12.5 (≈ 49 µM)	–	–	–	–	–
COc1cc(OC)cc(-n2sc3ccccc3c2=O)c1 [Compound 2k]	12.5 (≈ 43.5 µM)	3.13 (≈ 10.9 µM)	12.5 (≈ 43.5 µM)	12.5 (≈ 43.5 µM)	1.56 (≈ 5.43 µM)	3.13 (≈ 10.9 µM)	12.5 (≈ 43.5 µM)	6.25 (≈ 21.8 µM)	6.25 (≈ 21.8 µM)	6.25 (≈ 21.8 µM)	6.25 (≈ 21.8 µM)	6.25 (≈ 21.8 µM)	6.25 (≈ 21.8 µM)	–	–	–	–	–
CCC(C)n1ncn(-c2ccc(N3CCN(c4ccc(OCC5COC(Cn6cncn6)(c6ccc(Cl)cc6Cl)O5)cc4)CC3)cc2)c1=O (stereo not drawn) [ITC, itraconazole, reference compound]	–	–	–	–	–	–	–	–	–	–	–	–	–	7.8 (≈ 11.1 µM)	0.48 (≈ 0.68 µM)	0.12 (≈ 0.17 µM)	0.48 (≈ 0.68 µM)	0.975 (≈ 1.38 µM)
